From patent US11046672B2, “Indolinones compounds and their use in the treatment of fibrotic diseases” (RESPIVERT LIMITED, priority 2015, dated 2021)
pIC50, pKi: −log10 of the molar value. Where two headings read alike, the source gives them in different places.

Assays:
[1] = PAMPA permeability assay; type: in vitro ADME; conditions: PAMPA; for recovery at 5 hr, 10 μM: pH 7, PAMPA, donor and acceptor compartments; for Papp at 5 h, 10 μM: pH 7, pH 7, 10 μM
[2] = test system: MRC5 cells; test: Cell viability assay in MRC5 cells (MTT)
[3] = target: T1, PDGFRβ (Homo sapiens (Human), UniProt P09619); conditions: read-out: Ki PDGFRβ
T1 sequence (P09619 33-1106): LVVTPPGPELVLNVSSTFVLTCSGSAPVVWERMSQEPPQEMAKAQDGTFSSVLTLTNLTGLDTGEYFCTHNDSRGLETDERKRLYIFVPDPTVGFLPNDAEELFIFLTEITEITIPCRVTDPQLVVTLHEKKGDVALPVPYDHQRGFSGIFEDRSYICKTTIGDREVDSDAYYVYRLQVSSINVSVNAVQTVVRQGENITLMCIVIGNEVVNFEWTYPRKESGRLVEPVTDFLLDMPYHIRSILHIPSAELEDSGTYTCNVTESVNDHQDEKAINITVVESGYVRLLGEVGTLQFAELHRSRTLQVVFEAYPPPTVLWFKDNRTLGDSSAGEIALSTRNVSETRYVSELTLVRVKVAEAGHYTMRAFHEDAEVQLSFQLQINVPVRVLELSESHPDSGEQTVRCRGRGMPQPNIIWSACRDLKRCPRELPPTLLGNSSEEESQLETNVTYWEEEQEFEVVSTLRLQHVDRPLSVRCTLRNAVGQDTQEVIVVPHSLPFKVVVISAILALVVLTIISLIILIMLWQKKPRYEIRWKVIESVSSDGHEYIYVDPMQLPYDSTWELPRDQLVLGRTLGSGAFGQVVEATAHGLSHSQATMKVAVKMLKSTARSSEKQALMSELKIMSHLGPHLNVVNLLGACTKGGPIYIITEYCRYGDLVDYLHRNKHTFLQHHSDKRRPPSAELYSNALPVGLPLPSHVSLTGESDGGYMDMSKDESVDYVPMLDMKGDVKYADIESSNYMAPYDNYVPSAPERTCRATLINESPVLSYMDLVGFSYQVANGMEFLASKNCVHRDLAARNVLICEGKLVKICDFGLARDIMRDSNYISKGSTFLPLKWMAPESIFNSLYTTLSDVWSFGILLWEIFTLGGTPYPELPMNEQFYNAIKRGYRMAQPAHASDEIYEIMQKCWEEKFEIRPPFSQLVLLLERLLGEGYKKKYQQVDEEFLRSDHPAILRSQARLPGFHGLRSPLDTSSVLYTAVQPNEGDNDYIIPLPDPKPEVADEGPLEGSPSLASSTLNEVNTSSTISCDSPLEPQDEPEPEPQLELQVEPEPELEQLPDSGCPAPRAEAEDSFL

[4] = target: T1, PDGFRβ; test: PDGF-BB induced phosphorylation of PDGFRβ in fibroblasts (MRC5 cells, HTRF); type: cell-based
[5] = mean, n = 2 unless otherwise indicated
[6] = MRC5 cells, n = 1 unless otherwise indicated, read-out: PDGFBB-induced PDGFRβ phosphorylation in MRC5 cells (IC50)

| recovery at 5 hr, 10 μM [1] | Papp at 5 h, 10 μM [1] | pKi [3, 5] | pIC50 [4, 6] | Structure (SMILES) | Cell viability at 100 nM (%) [2] | Cell viability at 300 nM (%) [2] | Cell viability at 1000 nM (%) [2] | pKi [3] | pIC50 [4] |
| --- | --- | --- | --- | --- | --- | --- | --- | --- | --- |
| 54.1% | 0.0261 ×10⁻⁶ cm/s | 7.72 | 7.40 | COC(=O)c1cc2c(cc1C)/C(=C(/Nc1ccc(S(=O)(=O)NOCCN3CCN(C)CC3)cc1)c1ccccc1)C(=O)N2 [Example 2, (Z)-Methyl 5-methyl-3-(((4-(N-(2-(4-methylpiperazin-1-yl)ethoxy)sulfamoyl)phenyl)amino)(phenyl)methylene)-2-oxoindoline-6-carboxylate] | 124.5% | 104.4% | 101.2% | – | – |
| 51.5% | 0.424 ×10⁻⁶ cm/s | 7.96 | 8.43 | COC(=O)c1ccc2c(c1)NC(=O)/C2=C(\Nc1ccc(C(=O)N(C)OCCN2CCN(C)CC2)c(C)c1)c1ccccc1 [Example 18] | 104.5% | 90.3% | 68.7% | – | – |
| 54.6% | 0.00329 ×10⁻⁶ cm/s | 8.02 | 8.23 | COC(=O)c1ccc2c(c1)NC(=O)/C2=C(\Nc1ccc(C(=O)NOCCCN(C)C)cc1)c1ccccc1 [Example 19] | 108.3% | 92.7% | 76.9% | – | – |
| 41.5% | 30 ×10⁻⁶ cm/s | 7.70 | 7.71 | COC(=O)c1ccc2c(c1)NC(=O)/C2=C(\Nc1ccc(S(=O)(=O)N(C)OCCN2CCN(C)CC2)cc1)c1ccccc1 [Example 25] | 108.5% | 104.8% | 79.3% | – | – |
| 61.2% | 0.00146 ×10⁻⁶ cm/s | 8.32 | 7.98 | COC(=O)c1cc2c(cc1C)/C(=C(/Nc1ccc(C(=O)NOCCCN(C)C)cc1)c1ccccc1)C(=O)N2 [Example 27] | 94.9% | 88.6% | 86.4% | – | – |
| 65.1% | 0.00415 ×10⁻⁶ cm/s | 8.13 | 8.50 | COC(=O)c1cc2c(cc1C)/C(=C(/Nc1ccc(C(=O)NOCCCN(C)C)c(C)c1)c1ccccc1)C(=O)N2 [Example 29] | 92% | 85.8% | 91.8% | – | – |
| 87% | 0.00225 ×10⁻⁶ cm/s | 8.14 | 8.13 | COC(=O)c1cc2c(cc1C)/C(=C(/Nc1ccc(C(=O)NOC3CCN(C)CC3)cc1)c1ccccc1)C(=O)N2 [Example 30] | 96.1% | 87.7% | 26% | – | – |
| – | – | 8.18 | 8.11 | COC(=O)c1cc2c(cc1C)/C(=C(/Nc1ccc(C(=O)NOC3CCN(C)CC3)c(C)c1)c1ccccc1)C(=O)N2 [Example 31] | 111.7% | 97.3% | 95.7% | – | – |
| 42.8% | 0.0192 ×10⁻⁶ cm/s | 8.31 | 8.51 | COC(=O)c1cc2c(cc1C)/C(=C(/Nc1ccc(C(=O)NOCCN3CCN(C)CC3)c(F)c1)c1ccccc1)C(=O)N2 [Example 32] | 93.5% | 82.3% | 66.3% | – | – |
| 71.9% | 0.00743 ×10⁻⁶ cm/s | 8.07 | 8.05 | COC(=O)c1ccc2c(c1)NC(=O)/C2=C(\Nc1ccc(C(=O)NOCCN2CCN(C)CC2)c(F)c1)c1ccccc1 [Example 33] | 110.7% | 101.3% | 91.3% | – | – |
| – | – | 7.80 | 7.87 | COC(=O)c1cc2c(cc1C)/C(=C(/Nc1ccc(C(=O)N(OC)C3CCN(C)CC3)c(C)c1)c1ccccc1)C(=O)N2 [Example 34] | 114.8% | 80% | 61.5% | – | – |
| – | – | 7.66 | 7.57 | COC(=O)c1cc2c(cc1C)/C(=C(/Nc1ccc(C(=O)N(OC)C3CCN(C)CC3)cc1)c1ccccc1)C(=O)N2 [Example 35] | 92.9% | 77.2% | 75.7% | – | – |
| 53.1% | 0.0301 ×10⁻⁶ cm/s | 8.07 | 8.03 | CCN1CCN(CCONC(=O)c2ccc(N/C(=C3\C(=O)Nc4cc(C(=O)OC)c(C)cc43)c3ccccc3)cc2)CC1 [Example 36] | 108.8% | 93% | 65.9% | – | – |
| – | – | 6.61 | 7.62 | COC(=O)c1ccc2c(c1)NC(=O)/C2=C(\Nc1ccc(C(=O)N2CCO2)cc1)c1ccccc1 [Example 37] | 95.2% | 98.9% | 106% | – | – |
| 55.4% | 0.00569 ×10⁻⁶ cm/s | 8.16 | 7.84 | COC(=O)c1ccc2c(c1)NC(=O)/C2=C(\Nc1ccc(C(=O)NOCCN2CC[C@H](N(C)C)C2)cc1)c1ccccc1 [Example 38] | 89.3% | 90.8% | 93% | – | – |
| – | – | 8.27 | 7.47 | COC(=O)c1ccc2c(c1)NC(=O)/C2=C(\Nc1ccc(C(=O)NOCCN2CCN(CCO)CC2)cc1)c1ccccc1 [Example 39] | 89.9% | 90.1% | 90.8% | – | – |
| 75% | 0.00954 ×10⁻⁶ cm/s | 8.12 | 7.53 | COC(=O)c1ccc2c(c1)NC(=O)/C2=C(\Nc1ccc(C(=O)NOCCN2CCC(O)CC2)cc1)c1ccccc1 [Example 40] | 103.8% | 103.8% | 110.5% | – | – |
| 59.6% | 0.00258 ×10⁻⁶ cm/s | 7.82 | 7.43 | COC(=O)c1ccc2c(c1)NC(=O)/C2=C(\Nc1ccc(C(=O)NOCCN2CCS(=O)(=O)CC2)cc1)c1ccccc1 [Example 41] | 112.3% | 96.1% | 86.8% | – | – |
| 76.8% | 0.0264 ×10⁻⁶ cm/s | 8.15 | 7.25 | COC(=O)c1ccc2c(c1)NC(=O)/C2=C(\Nc1ccc(C(=O)NOCCN2CCNC(=O)C2)cc1)c1ccccc1 [Example 42] | 114.5% | 109.6% | 118.3% | – | – |
| – | – | 6.99 | 7.13 | COC(=O)c1ccc2c(c1)NC(=O)/C2=C(\Nc1ccc(C(=O)NOCCN2[C@H](C)CCC[C@@H]2C)cc1)c1ccccc1 [Example 44] | 103% | 105.9% | 109.8% | – | – |
| – | – | 7.85 | 7.57 | COC(=O)c1ccc2c(c1)NC(=O)/C2=C(\Nc1ccc(C(=O)NOCCN(C)CCO)cc1)c1ccccc1 [Example 45] | 98.9% | 104.7% | 80.7% | – | – |
| – | – | 7.55 | 7.50 | COCCN1CCN(CCONC(=O)c2ccc(N/C(=C3\C(=O)Nc4cc(C(=O)OC)ccc43)c3ccccc3)cc2)CC1 [Example 46] | 120.7% | 109.5% | 86.3% | – | – |
| – | – | 7.99 | 7.41 | COC(=O)c1ccc2c(c1)NC(=O)/C2=C(\Nc1ccc(C(=O)NOCCN2CCC(N(C)C)CC2)cc1)c1ccccc1 [Example 47] | 112% | 102.4% | 93% | – | – |
| – | – | 7.69 | 7.36 | COC(=O)c1cc2c(cc1C)/C(=C(/Nc1ccc(C(=O)NOCCCN3CCCCC3)cc1)c1ccccc1)C(=O)N2 [Example 53] | 124.2% | 96.8% | 97.8% | – | – |
| – | – | 7.74 | 7.47 | COC(=O)c1cc2c(cc1C)/C(=C(/Nc1ccc(C(=O)NOCCN3CCC(O)CC3)cc1)c1ccccc1)C(=O)N2 [Example 54] | 101% | 99.8% | 92.9% | – | – |
| – | – | 7.80 | 8.32 | COC(=O)c1cc2c(cc1C)/C(=C(/Nc1ccc(C(=O)NOCCN3CCC(C#N)CC3)cc1)c1ccccc1)C(=O)N2 [Example 63] | 99% | 116.9% | 12.1% | – | – |

| Structure (SMILES) | recovery at 5 hr, 10 μM [1] | Papp at 5 h, 10 μM [1] | pKi [3, 5] | pIC50 [4, 6] | Cell viability at 100 nM (%) [2] | Cell viability at 300 nM (%) [2] | Cell viability at 1000 nM (%) [2] | pKi [3] | pIC50 [4] |
| --- | --- | --- | --- | --- | --- | --- | --- | --- | --- |
| COC(=O)c1cc2c(cc1C)/C(=C(/Nc1ccc(S(=O)(=O)N(C)OCCN(C)CCO)cc1)c1ccccc1)C(=O)N2 [Example 10, (Z)-Methyl 3-(((4-(N-(2-((2-hydroxyethyl)(methyl)amino)ethoxy)-N-methylsulfamoyl)phenyl)amino)(phenyl)methylene)-5-methyl-2-oxoindoline-6-carboxylate] | 92.6% | 24.8 ×10⁻⁶ cm/s | – | – | 105.9% | 100.9% | 42% | 7.76 | 7.87 |
| COC(=O)c1cc2c(cc1C)/C(=C(/Nc1ccc(C(=O)N(C)OCCN3CC4CC(C3)N4)cc1)c1ccccc1)C(=O)N2 [Example 66] | – | – | 7.80 | 7.81 | 102.8% | 92.9% | 53.8% | – | – |
